Earlier results, collected in paper PMC9363195, “Preclinical Pharmacokinetics, Biodistribution, and Acute Toxicity Evaluation of Caerin 1.9 Peptide in Sprague Dawley Rats” (Evidence-based Complementary and Alternative Medicine : eCAM, 2022).

System: TC-1 cells
Details: cited from earlier work
Excerpt: Caerin 1.1 and Caerin 1.9 are stable.

Substance: Caerin 1.1
- prevention of development of TC-1 cells after heating (heated at 100°C for 5 minutes): equally effective
- activity after incubation (room temperature, 7 days, low pH environment (pH5.5-7)): remained active
- bioactivity after incubation in temperature-sensitive gel (temperature-sensitive gel, room temperature, 30 days): maintained a similar degree of bioactivity
